Test results from US11872236B2, “Pharmacological agents for treating ocular diseases” (CALASIA PHARMACEUTICALS, INC., priority 2018, dated 2024).
Values after ≈ are worked out from the molar mass of the structure shown. Like-named read-outs stand apart in the source and are kept apart here.

Experiments:
[1] = Solubility with FDA approved excipients; type: physicochemical
Description: Solubility: The solubility of CAP1160 and CAP4196 was tested with different FDA approved excipients such as cyclodextrin, PEG-b-PCL, Kolliphor-EL, Kolliphor-40, sorbitol, propelyne gycol, sodium phosphate, etc. […] This makes the formulation safe for topical use (see Table 6).

SRA 01/04 HLE cells = experiment: Cell-based UV protection, viability by Alamar blue; parameters: species or system human; conditions: Table 5;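 note: cells pretreated with compound at a range of concentrations before UV irradiation, viability read 24 h after exposure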
alpha-A crystalline = target: T1, alpha-A crystalline (Homo sapiens, UniProt P02489); experiment: Ca+2 and UVC induced aggregation of alpha-A crystalline (absorbance screen); type: biochemical; conditions: for inhibition at 200 µM: Ca+2 and UVC induced aggregation of alpha-A crystalline, read-out: Percent protection (at 200 μM); for EC50: preventing Ca+2 and UVC induced aggregation of alpha-A crystalline;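 for all read-outs here: recombinant human alpha-A crystallin (500 µg/ml) preincubated 30 min with compound, then UV-induced aggregation tracked by absorbance at time points from 0 to 120 min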
T1 sequence (P02489 1-173): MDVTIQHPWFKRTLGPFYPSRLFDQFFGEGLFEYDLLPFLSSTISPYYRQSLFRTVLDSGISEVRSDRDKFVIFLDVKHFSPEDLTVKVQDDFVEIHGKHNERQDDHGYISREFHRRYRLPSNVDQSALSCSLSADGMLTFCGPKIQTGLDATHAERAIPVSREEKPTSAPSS

[2] = test system: human lens epithelial (HLE) cells; experiment: Cell-based heat protection, viability by Alamar blue; parameters: Cell Heat % protection: concentration or dose not given beside the values; conditions: for Cell-based [Heat] (max % net protection): Table 5; for Cell Heat % protection: Table 8
Description: Alamar blue was used for assessing viability. Mean±SEM of the measurements are shown.
Cell-based using assays using human lens epithelial cell lines SRA 01/04 and B3 were also performed. The cells were exposed to UV or heat and cell viability assessed 24 hours post-exposure by Alamar blue staining. In another experiment, SRA 01/04 cells were pre-incubated with varying concentrations of compounds two hours prior to UV exposure. Relative protection was measured as percent viability compared to vehicle control 24 hours following UV exposure. Mean±SEM of the measurements are shown.

TTR = TTR (Homo sapiens, UniProt P02766); conditions: Sant'Anna, R. et al. (2016); cited from earlier work
porcine eye lens = experiment: Ex vivo eye lens exposed to UVC radiation, cataract scoring; conditions: Table 8; printed as a percentage
Description: The top row of the figure corresponds to lenses that were not exposed to UVC but contained same percent of DMSO as those that were exposed to UVC. The lenses were monitored and imaged for three days following the exposure to UVC. No drug was added to the lenses post UVC exposure.

[3] = test system: New Zealand white rabbits; experiment: Ocular safety / MTD, repeated dose for 7 days; type: in vivo; conditions: for Mortality and Morbidity: 50 μL × 4 times a day in each eye, male
Description: Prodrug CAP4196 is well-tolerated up to 10% concentration in New Zealand white rabbits. Initial maximum tolerated dose studies (MTD) help identify observable signs of toxicity and provide a rationale for setting dose levels in later definitive studies. Therefore, the MTD of CAP4196 was evaluated in New Zealand white rabbits. Four animals per group were dosed with increasing concentrations (0.25, 2.5, 8 and 10%) of CAP4196 at 50 μl volume q.i.d. dosing at 2 hrs interval. Following the dosing, the animals were evaluated for mortality and morbidity, ophthalmological examination, body weight, and clinical pathology before start of dosing then on dosing days 2, 4, and 6 prior to first dose instillation and on day 7, one hour after last dose instillation.

Row | SMILES | Cell-based [UV] (max % net protection) (SRA 01/04 HLE cells) [%] | Cell-based [Heat] (max % net protection) [2] [%] | further results
1 | Cc1ccc(C(=O)c2cc(O)c(O)c([N+](=O)[O-])c2)cc1 [CAP1160, Tolcapone] | 68 | 23 | With Kolliphor 40 (1:1) In water [1]: 1; With PEG-b-PCL (1:1) mg/ml in water [1]: 1 mg/mL; improvement in solubility [1]: 10 fold; solubility ([1]; aqueous with cosolvent or surfactant or cyclodextrin, Solubility in water with (2-hydroxypropyl)-beta cyclodextrin mg/ml (1:1)): 2 mg/mL (≈ 7.32 mM); solubility ([1]; aqueous with cosolvent or surfactant or cyclodextrin, solubility): 1.5 mg/mL (≈ 5.49 mM); solubility ([1]; water, Solubility in water mg/ml): 0.1 mg/mL (≈ 0.366 mM); inhibition at 200 µM (alpha-A crystalline): 65%; EC50 (alpha-A crystalline): 63.5 µM; TTR aggregation inhibition (TTR): potent TTR aggregation inhibitor
2 | O=C(c1ccccc1)c1ccc(O)c(O)c1 [CAP1347] | 28 | 8 | inhibition at 200 µM (alpha-A crystalline): 13%; EC50 (alpha-A crystalline): 115 µM
3 | O=C(c1cc(O)c(O)c([N+](=O)[O-])c1)c1ccccc1F [CAP3089] | 31 | 0 | inhibition at 200 µM (alpha-A crystalline): 56%; EC50 (alpha-A crystalline): 362 µM
4 | Nc1ccc(Cl)cc1C(=O)c1ccccc1Cl [CAP4126] | 0 |  | 
5 | O=C(c1ccccc1)c1ccccc1 [CAP4127] | 55 | 9 | 
6 | Nc1ccc(C(=O)c2ccccc2)cc1 [CAP4128] | 23 |  | 
7 | Nc1ccc(C(=O)c2ccccc2)cc1N [CAP4129] | 37 | 0 | 
8 | COc1ccc(C(=O)c2ccccc2)cc1 [CAP4130] | 55 | 42 | 
9 | O=C(c1ccccc1)c1ccc([N+](=O)[O-])cc1 [CAP4131] | 0 |  | 
10 | COc1ccc(C(=O)c2ccccc2)cc1OC [CAP4132] | 39 | 0 | 
11 | O=C(c1ccccc1)c1ccc(O)c(O)c1O [CAP4133] | 22 | 18 | 
12 | COc1cc(O)c(C(=O)c2ccccc2)cc1S(=O)(=O)[O-].[Na+] [CAP4135] | 75 | 4 | 
13 | COc1cc(O)c(C(=O)c2cc(S(=O)(=O)[O-])c(OC)cc2O)cc1S(=O)(=O)[O-].[Na+].[Na+] [CAP4136] | 70 | 5 | 
14 | Cc1ccc(C(=O)c2ccccc2)c(N)c1 [CAP4152] | 17 | 0 | 
15 | O=C(O)c1ccc(C(=O)c2ccc(C(=O)O)cc2)cc1 [CAP4160] | 82 | 0 | 
16 | O=C(c1cccc(F)c1)c1cccc(F)c1 [CAP4161] | 38 | 8 | 
17 | COc1cc(O)c(C(=O)c2ccccc2)cc1S(=O)(=O)O [CAP4162] | 60 | 3 | 

Row | SMILES | Cell-based [UV] (max % net protection) (SRA 01/04 HLE cells) [%] | Cell-based [Heat] (max % net protection) [2] [%] | further results
18 | O=C(O)c1ccc(C(=O)c2ccccc2)cc1 [CAP4172] | 67 | 9 | 
19 | O=C(O)c1ccc(C(=O)c2ccccc2C(=O)O)cc1 [CAP4173] | 61 | 0 | 
20 | Nc1cc(S(=O)(=O)O)cc2cc(S(=O)(=O)O)cc(O)c12 [CAP4179] |  |  | Cell Heat % protection [2]: 29%
21 | Nc1ccc2c(O)cc(S(=O)(=O)O)cc2c1 [CAP4180] |  |  | Cell Heat % protection [2]: 22%
22 | O=S(=O)(O)c1cc(O)c2cc(Nc3ccccc3)ccc2c1 [CAP4183] |  |  | Cell Heat % protection [2]: 17%
23 | CNc1ccc2c(O)cc(S(=O)(=O)O)cc2c1 [CAP4184] |  |  | Ex-vivo (porcine eye lens): 15%; Cell Heat % protection [2]: 4%
24 | O=S(=O)([O-])c1cc(O)c2cc(O)ccc2c1.[Na+] [CAP4186] |  |  | Cell Heat % protection [2]: 17%
25 | Nc1ccc2cc(S(=O)(=O)[O-])cc(O)c2c1.[Na+] [CAP4187] |  |  | Cell Heat % protection [2]: 19%
26 | Nc1c(O)cc(S(=O)(=O)O)c2ccccc12 [CAP4188] |  |  | Cell Heat % protection [2]: 2%
27 | Nc1ccc2c(O)cc(S(=O)(=O)O)cc2c1 [CAP4190] |  |  | Cell Heat % protection [2]: 15%
28 | Cc1ccc(C(=O)c2cc(OP(=O)([O-])[O-])c(O)c([N+](=O)[O-])c2)cc1.[Na+].[Na+] [CAP4196, Sodium 2-hydroxy-5-(4-methylbenzoyl)-3-nitrophenyl phosphate] | 63 | 38 | local reactions ([3]; 10% w/v, 50 μL, 4 times a day): only few temporary local reactions like excessive rubbing of eyes and redness; systemic toxicity ([3]; 10% w/v, 50 μL, 4 times a day): did not produced any systemic toxicity; MTD (highest dose concentration) ([3]; 50 μL, 4 times a day, 2 hours interval, 7 days): 10%; Mortality and Morbidity ([3]; ophthalmic formulation 0.25% w/v): 0; Mortality and Morbidity ([3]; ophthalmic formulation 4% w/v): 0; Mortality and Morbidity ([3]; ophthalmic formulation 8% w/v): 0; Mortality and Morbidity ([3]; ophthalmic formulation 10% w/v): 0; well-tolerated concentration ([3]; topical ocular, repeated dose 7 days): up to 10%; pH of the formulation ([1]; 100 mg/ml, only water as solvent): 6.65; solubility ([1]; aqueous with cosolvent or surfactant or cyclodextrin, water with (2-hydroxypropyl)-beta cyclodextrin (1:1), read-out: Solubility in water with (2-hydroxypropyl)-beta cyclodextrin mg/ml (1:1)): 100 mg/mL; solubility ([1]; pH 6.65, only water as solvent, read-out: solubility): 100 mg/mL; improvement in solubility ([1]; phosphate prodrug, only water as solvent): greater than 660 fold; solubility ([1]; water, read-out: Solubility in water): 100 mg/mL
29 | COc1ccc(C(=O)c2ccc([N+](=O)[O-])cc2)cc1S(=O)(=O)NCc1ccccc1 [CAP4256] | 7 |  | 
30 | COc1ccc(C(=O)c2ccc([N+](=O)[O-])cc2)cc1S(=O)(=O)NC1CCCCC1 [CAP4257] | 19 |  | 
31 | CCc1onc2ccc(C(=O)c3ccccc3)cc12 [CAP4258] | 36 |  | 
32 | O=C(c1cccc([N+](=O)[O-])c1)c1ccc2c(c1)C(=O)OC2=O [CAP4265] | 129 | 17 | 
33 | O=C(c1ccccc1)c1ccccc1S(=O)(=O)c1ccccc1 [CAP4279] | 5 | 0 | 
34 | NC(=O)Cc1cccc(C(=O)c2ccccc2)c1N [CAP4281] | 38 | 8 | 
